Measured values taken from patent publication US20060216299A1, “Cell cycle targets and peptides” (Rigel Pharmaceuticals, Inc., priority 2002, published 2006).
Where no end group is shown, it is not given here.

Key:
A549.tTA cells [1] = experiment: Cell tracker assay (Dil) of GFP fusion peptides; type: cell-based; conditions: for anti-proliferative effect (cell tracker assay, in words): GFP-fused peptides expressed in A549.tTA cells; for cell death after infection of retrovirus encoding GFP fused peptides: A549.tTA cells, data not shown
Protocol: A549.tTA cells were infected with tet-regulatable retroviruses expressing GFP fusion peptides, stained with the cell tracker dye, Dil, and incubated at 37° C. for five days. After the incubation, fluorescent intensity of GFP and Dil was analyzed with MoFlo. A growth ratio was obtained as the ratio of mean Dil fluorescent intensity for the GFP positive population relative to that of the GFP negative population.
Effect of GFP fused peptides and their mutants. GFP fused peptides (#40, #41, #88 and their mutants) expressing A549.tTA cells were stained with Dil and fluorescent intensity of GFP and Dil was examined with MoFlo. A growth ratio was obtained as described above. Mutated residues were underlined. Amino acid sequences of #40, #41, and #88 were aligned with leucine-rich motifs of HIV-1 Rev (amino acid position 75 to 84, gi|16118296|gb|AAL12672.1|), HTLV-1 Rex (amino acid position 82 to 93, gi|7963889|gb|AAF71372.1), Mitogen-activated protein kinase kinase 1, MAPKK, (amino acid position 33 to 43, gi|5579478|ref|NP_002746.1|), Human homologue of mouse double minute 2, Hdm-2, (amino acid position 190 to 200, gi|4505137|ref|NP_002383.1|), and Protein kinase inhibitor, PKI (amino acid position 38 to 48, gi|203271|gb|AAA40867.1|).
Effect of GFP fused peptides and their mutants. A549.tTA cells were infected with retroviruses encoding GFP fusion peptides (#38 and its mutants) and stained with the cell tracker dye, Dil. After the infection, fluorescent intensity of GFP and Dil was examined with MoFlo. A growth ratio was obtained as the ratio of mean Dil fluorescent intensity for the GFP positive population relative to that of the GFP negative population and data are shown as mean±SE in duplicate. Mutated residues or non-identical residues of the C-terminus of cell division cycle 42 isoform 2, CDC42C, (amino acid position 183 to 191, gi|16357472|ref|NP_426359.1|) to #38 were underlined. As controls, entire GFP-C20 library, dsGFP and GFP fused p21C expressing A549.tTA cells were used.

A549.tTA cells [2] = experiment: Cell cycle analysis (Hoechst 33258) of cells expressing GFP fusion peptides; type: cell-based, human; conditions: GFP low (R1) and GFP high (R2) populations
Protocol: A549.tTA cells expressing GFP fusion peptides were fixed with Cell Fixation/Permeabilization Kits (BD bioscience, Lexington, Ky., U.S.A.) as manufacturer's recommendation and stained with 5 mM Hoechst 33258 (Sigma, St. Louis, Mo., U.S.A.). GFP and Hoechst fluorescent intensity was analyzed with MoFlo.

A549 cells = experiment: High content imaging of anti-proliferative synthetic K7 peptides (nuclei and apoptotic nuclei, 24 hours); type: cell-based, human
Protocol: A549 cells (American Type Culture Collection (ATCC), Manassas, Va., U.S.A.) were plated at 2000 cells/well in 96 well plates with F12K media supplemented with 10% fetal bovine serum and 1% penicillin/streptomycin and allowed to grow for 24 hours. Peptide dissolved in media was added to the cells to a final concentration ranging from 0.8 to 25 uM in triplicate. Following incubation with peptide for 24 hours, cells were fixed with 3.7% formaldehyde for 30 minutes, rinsed in PBS and stained with DAPI (Molecular Probes) to label nuclear DNA. Digital images were taken of the labeled nuclei in each well using a Zeiss Axiovert microscope, UV filter set and Photometrics camera.

[3] = tested on: A549 lung carcinoma cells; experiment: Fluorescence microscopy examination of A549 cells exposed to lys7-peptides (nuclei, apoptosis, cell cycle stage, 48 hours); type: cell-based, human; conditions: for number of observed cell nuclei remaining: A549 cells, 48 hours exposure, increasing doses; for cell cycle stage distribution: asynchronously growing A549 cells, 48 hours, remaining cells that have not undergone apoptosis
Protocol: A549 tumor cells (American Type Culture Collection, Fairfax Va.) were plated at 2000 cells per well in 96 well plates with F12k media supplemented with 10% fetal bovine serum and 1% penicillin/streptomycin and allowed to grow for 24 hours. Peptide dissolved in media was added to the cells to a final concentration of 0.8 to 100 uM in triplicate. Following incubation with peptide for 24 or 48 hours, cells were fixed with 3.7% formaldehyde for 30 minutes, rinsed in PBS and stained with DAPI (Molecular Probes, OR) to label nuclear DNA. Digital images of the labeled nuclei in each well were taken using a Zeiss Axiovert microscope, UV filter set and Photometrics camera.

[4] = tested on: A549 cells expressing GFP fusion #38 and #41; experiment: Displacement of cellular localization of GFP fusion peptides by synthetic analogues; type: cell-based, human; conditions: 100 μM peptide, 5 hours
Protocol: GFP fused #38, #40, and #41 were concentrated at the plasma membrane and granular cytoplasmic structures. […] We examined whether synthetic analogues can displace cellular localization of GFP fusion peptides. A549 cells expressing GFP fusion #38 and #41 were incubated with 100 μM of K7—#41, K7—#41M and K7—#40 for 5 hours and GFP localization was analyzed using a fluorescent microscope.

[5] = Table 2, GFP fusion #38 and mutants in A549.tTA cells, ratio of mean Dil intensity, GFP positive relative to GFP negative, duplicate
[6] = Table 1, GFP fused peptides in A549.tTA cells, ratio of mean Dil fluorescent intensity, GFP positive relative to GFP negative population, five days

Substance	anti-proliferative effect (cell tracker assay, in words) (A549.tTA cells [1])	Growth Ratio (mean ± SE) (A549.tTA cells [1]; [5])	Growth Ratio (mean ± SE) (A549.tTA cells [1]; [6])	further results
AALEPPETQPKRKCCIF [CDC42C, C-terminal 17 residues of cell division cycle 42 isoform 2, expressed as GFP-fused peptide, reference compound]	no significant anti-proliferative activity	1.3 ± 0.1		
ASGLLKLVQAKRKCCIS (cysteine pairing not given here; also: GFP fusion) [#38(T1A)]		3.5 ± 0.2		
GRGCIFRWRRGARGMARAFK (also: GFP fusion) [#41(L12A/M16A/L18A)]	no significant localization or anti-proliferative effect		1.1 ± 0.1	
GRGCIFRWRRGLRGMARAFK (also: GFP fusion) [#41(M16A/L18A)]	reduced the anti-proliferative effect		1.5	
GRGCIFRWRRGLRGMMRAFK (also: GFP fusion) [#41(L18A)]	partial loss of the anti-proliferative effect		1.7	
GRGCIFRWRRGLRGMMRLFK (also: GFP fusion) [#41, anti-proliferative peptide tested as GFP fusion]	significant inhibitors of cell proliferation		2.7 ± 0.2	cell cycle profile (DNA content, Hoechst 33258) (A549.tTA cells [2]): arrested in G0/G1; cell death after infection of retrovirus encoding GFP fused peptides (A549.tTA cells [1]): did not observe massive cell death
KRRQTSMTDFYHSKRRLIFSKRKP [p21C, reference compound]	significant antiproliferative effect	4.5 ± 0.8	4.5 ± 0.8	
QAKRKCCIS ({GFP}-QAKRKCCIS; cysteine pairing not given here; also: fused to GFP C-terminus) [#38NΔ(1-8)]		1.5 ± 0.1		
RLRRICSGILLARRIAGAFVRPVRP (also: GFP fusion) [#88(I12AILI6A/118A)]			1.1 ± 0.1	
RLRRICSGILLIRRIAGAFVRPVRP (also: GFP fusion) [#88(L16A/L18A)]			1.1	
RLRRICSGILLIRRILGAFVRPVRP (also: GFP fusion) [#88(118A)]			1.5	
RLRRICSGILLIRRILGIFVRPVRP [#88]	significant inhibitors of cell proliferation		2.7 ± 0.4	cell cycle profile (DNA content, Hoechst 33258) (A549.tTA cells [2]): no significant change in the DNA content profile; cell death after infection of retrovirus encoding GFP fused peptides (A549.tTA cells [1]): did not observe massive cell death
RWDPTRLLRARFARALVRRSRPVRP (also: GFP fusion) [#40(F10A/L13A/M15A)]			1.3 ± 0.1	
RWDPTRLLRFRFARALVRRSRPVRP (also: GFP fusion) [#40(L13A/M15A)]			1.6 ± 0.2	
RWDPTRLLRFRFLRALVRRSRPVRP (also: GFP fusion) [#40(M15A)]			2.0	
RWDPTRLLRFRFLRMLVRRSRPVRP (also: GFP fusion) [#40, anti-proliferative peptide tested as GFP fusion]	significant inhibitors of cell proliferation		2.4 ± 0.3	cell cycle profile (DNA content, Hoechst 33258) (A549.tTA cells [2]): no significant change in the DNA content profile; cell death after infection of retrovirus encoding GFP fused peptides (A549.tTA cells [1]): did not observe massive cell death
TAGLLKLVQAKRKCCIS (cysteine pairing not given here; also: GFP fusion) [#38(S2A)]	enhanced	5.5 ± 0.8		
TSALLKLVQAKRKCCIS (cysteine pairing not given here; also: GFP fusion) [#38(G3A)]		2.7 ± 0.2		
TSGALKLVQAKRKCCIS (cysteine pairing not given here; also: GFP fusion) [#38(L4A)]		2.2 ± 0.1		
TSGLAKLVQAKRKCCIS (cysteine pairing not given here; also: GFP fusion) [#38(L5A)]		1.9 ± 0.2		
TSGLLALVQAKRKCCIS (cysteine pairing not given here; also: GFP fusion) [#38(K6A)]	reduced anti-proliferative effect	1.4 ± 0.1		
TSGLLKAVQAKRKCCIS (cysteine pairing not given here; also: GFP fusion) [#38(L7A)]		2.0 ± 0.2		
TSGLLKLAQAKRKCCIS (cysteine pairing not given here; also: GFP fusion) [#38(V8A)]		2.7 ± 0.2		
TSGLLKLVQAKRKACIS (not fully specified (N-terminus)) [#38(C14A)]		1.1 ± 0.1		
TSGLLKLVQAKRKCCIS ({GFP}-TSGLLKLVQAKRKCCIS; not fully specified; cysteine pairing not given here) [#38, 17mer anti-proliferative peptide with CAAX box motif, tested fused to the C-terminus of GFP]	significant inhibitors of cell proliferation	2.5 ± 0.2		cell cycle profile (DNA content, Hoechst 33258) (A549.tTA cells [2]): arrested in G0/G1; cell death after infection of retrovirus encoding GFP fused peptides (A549.tTA cells [1]): did not observe massive cell death
synthetic #40 fused with seven Lys (K7) via a linker (GGEEAAKA) at the N-terminus [K7—#40]				apoptotic nuclei (A549 cells): increase in apoptotic nuclei; number of observed cell nuclei remaining [3]: ca. 10 % of original values; cell cycle stage distribution [3]: depletion of G1 cells, a complete loss of S and G2 cells at 100 mM levels, and an increase in M phase cells; change of cellular localization of GFP fusion #41 [4]: these changes were not seen
synthetic #41 fused with seven Lys (K7) via a linker (GGEEAAKA) at the N-terminus [K7—#41]				apoptotic nuclei (A549 cells): increase in apoptotic nuclei; number of observed cell nuclei remaining [3]: ca. 10 % of original values; cell cycle stage distribution [3]: G1 phase cells were depleted and the percent of M phase cells increased significantly; change of cellular localization of GFP fusion #41 [4]: punctuated localization of GFP and loss of GFP localization in the cell-cell contact area
